This is an account of results in patent US7109294B2, “Bacterial glycosyltransferase polypeptides involved in antibiotic resistance” (priority 2001, dated 2006).

Common to all, as to type: cell-based, Pseudomonas aeruginosa
For experiment [1], the system named is 45E7 mutant flow cell biofilm.
Experiment [2] has as its system 30B1 mutant colony biofilm.
Experiment [3] relates to 45E7 mutant colony biofilm.

“Also recorded” adds a separate entry of the source.

Consider `NC[C@H]1O[C@H](O[C@H]2[C@H](O)[C@@H](O[C@H]3O[C@H](CO)[C@@H](O)[C@H](N)[C@H]3O)[C@H](N)C[C@@H]2N)[C@H](N)C[C@@H]1O` [Tb, tobramycin], for which the “live versus dead cells in Tb-treated biofilm (BacLight)” value in experiment [1] is recorded as “more dead cells than live ones”. Besides, in experiment [2], the “drop in viable count in colony biofilm” value is ~10^9 and the “viable cells in colony biofilm” value was “below detection; also recorded: no viable cells detected”. In addition, in experiment [3], the “resistance of colony biofilm cells” value was “as resistant to the effects of Tb as the wild type” and the “viable cells in colony biofilm” value is given as “below detection; also recorded: no viable cells were detected”.
